How the values were obtained:
[1] = molecular target: T1, Bifunctional dihydrofolate reductase-thymidylate synthase (Toxoplasma gondii, UniProt Q07422); assay: Inhibition of Toxoplasma gondii thymidylate synthase
T1 sequence (Q07422 whole entry): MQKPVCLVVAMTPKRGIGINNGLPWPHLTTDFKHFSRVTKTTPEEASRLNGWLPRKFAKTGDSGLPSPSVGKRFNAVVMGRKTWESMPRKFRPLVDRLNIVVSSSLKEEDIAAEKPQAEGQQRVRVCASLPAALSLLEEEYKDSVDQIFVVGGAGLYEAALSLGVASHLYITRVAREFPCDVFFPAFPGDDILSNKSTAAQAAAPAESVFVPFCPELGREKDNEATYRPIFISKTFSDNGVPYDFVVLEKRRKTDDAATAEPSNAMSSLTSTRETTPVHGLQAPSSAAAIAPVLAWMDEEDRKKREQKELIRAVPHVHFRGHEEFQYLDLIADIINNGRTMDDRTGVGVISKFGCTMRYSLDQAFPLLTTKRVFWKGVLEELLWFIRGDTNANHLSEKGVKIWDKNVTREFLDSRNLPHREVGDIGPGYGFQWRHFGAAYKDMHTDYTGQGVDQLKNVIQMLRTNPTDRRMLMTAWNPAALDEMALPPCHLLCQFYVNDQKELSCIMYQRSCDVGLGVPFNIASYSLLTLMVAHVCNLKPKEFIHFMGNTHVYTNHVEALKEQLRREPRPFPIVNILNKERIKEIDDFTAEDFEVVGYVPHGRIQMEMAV

[2] = molecular target: Dihydroorotate dehydrogenase (quinone), mitochondrial (Homo sapiens, UniProt Q02127); assay: Inhibition of human DHODH
Thymidylate synthase = Thymidylate synthase (Homo sapiens, UniProt P04818); assay: Inhibition of human thymidylate synthase
[3] = molecular target: T1, Bifunctional dihydrofolate reductase-thymidylate synthase; assay: Inhibition of Toxoplasma gondii DHFR

Thymidylate synthase, sequence (P04818 whole entry): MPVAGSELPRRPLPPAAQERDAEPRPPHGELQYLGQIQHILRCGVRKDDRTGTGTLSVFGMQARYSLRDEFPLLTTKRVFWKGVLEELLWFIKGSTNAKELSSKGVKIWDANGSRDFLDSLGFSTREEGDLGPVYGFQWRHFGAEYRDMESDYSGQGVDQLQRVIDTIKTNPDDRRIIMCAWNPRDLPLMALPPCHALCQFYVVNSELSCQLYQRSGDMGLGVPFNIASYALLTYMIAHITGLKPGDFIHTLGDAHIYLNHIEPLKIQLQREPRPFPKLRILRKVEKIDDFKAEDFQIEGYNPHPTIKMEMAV
Dihydroorotate dehydrogenase (quinone), mitochondrial, sequence (Q02127 whole entry): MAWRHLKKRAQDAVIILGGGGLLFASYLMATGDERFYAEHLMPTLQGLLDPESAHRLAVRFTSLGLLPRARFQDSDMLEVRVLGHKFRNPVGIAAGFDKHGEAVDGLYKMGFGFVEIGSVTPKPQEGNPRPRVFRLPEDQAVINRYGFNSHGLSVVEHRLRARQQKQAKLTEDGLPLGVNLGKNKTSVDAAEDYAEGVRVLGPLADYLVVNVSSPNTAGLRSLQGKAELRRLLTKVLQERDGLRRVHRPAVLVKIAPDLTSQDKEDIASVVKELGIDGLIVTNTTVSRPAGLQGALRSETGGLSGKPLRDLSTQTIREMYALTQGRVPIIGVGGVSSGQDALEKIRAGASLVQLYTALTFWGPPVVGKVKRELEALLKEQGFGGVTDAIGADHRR

Row | SMILES | IC50 [2] [µM] | IC50 (Thymidylate synthase) [µM] | IC50 [1] [µM] | IC50 [3] [µM]
1 | Nc1nc2cc3ccccc3c-2c(Nc2ccccc2)[nH]1 | > 200 | – | – | –
2 | Nc1nc2cc3ccccc3c-2c(Nc2cccc(F)c2)[nH]1 | > 200 | – | – | –
3 | Nc1nc2cc3ccccc3c-2c(Nc2ccc(Cl)cc2)[nH]1 | > 200 | > 14 | > 14 | > 16
4 | COc1cccc(Nc2[nH]c(N)nc3cc4ccccc4c2-3)c1 | > 200 | – | – | –
5 | CC(C)c1ccc(Nc2[nH]c(N)nc3cc4ccccc4c2-3)cc1 | – | > 14 | > 14 | > 16

Now from value to compound, other results behind:

Row | IC50 [2] [µM] | IC50 (Thymidylate synthase) [µM] | SMILES | IC50 [1] [µM] | IC50 [3] [µM]
6 | > 200 | > 13 | Nc1nc2cc3ccccc3c-2c(Nc2ccc(Cl)cc2F)[nH]1 | > 13 | > 16
7 | – | > 13 | Nc1nc2cc3ccccc3c-2c(Nc2ccc(F)c(Cl)c2)[nH]1 | > 13 | > 16
8 | > 200 | – | Nc1nc2cc3ccccc3c-2c(Nc2cccc(Br)c2)[nH]1 | – | > 14

— BindingDB's records for doi:10.1016/j.bmc.2012.05.068 (Duquesne University, 2012)
